From ChEMBL document CHEMBL1201862, “PubChem BioAssay data set” (2004)
Active and inactive are the calls of the source.

Tests used:
cells [1] = format: functional, cell-based
[2] = molecular target: DNA dC->dU-editing enzyme APOBEC-3G (Homo sapiens, UniProt Q9HC16); assay: Dose Response confirmation of small molecule APOBEC3G DNA Deaminase Inhibitors via a fluorescence-based single-stranded DNA deaminase assay. [Related pubchem assays (depositor defined):AID493012, AID493028]; format: functional
cells [3] = format: functional, cell-based; remark: listed apart in the source
Leucine aminopeptidase = molecular target: T1, Leucine aminopeptidase (Plasmodium falciparum 3D7, UniProt Q8IL11); assay: P. falciparum M17LAP inhibitors, primary screen, biochemical, fluorogenic H-Leu-NHMec substrate, 1536-well (AID 1619); format: functional
T1 sequence (Q8IL11 whole entry): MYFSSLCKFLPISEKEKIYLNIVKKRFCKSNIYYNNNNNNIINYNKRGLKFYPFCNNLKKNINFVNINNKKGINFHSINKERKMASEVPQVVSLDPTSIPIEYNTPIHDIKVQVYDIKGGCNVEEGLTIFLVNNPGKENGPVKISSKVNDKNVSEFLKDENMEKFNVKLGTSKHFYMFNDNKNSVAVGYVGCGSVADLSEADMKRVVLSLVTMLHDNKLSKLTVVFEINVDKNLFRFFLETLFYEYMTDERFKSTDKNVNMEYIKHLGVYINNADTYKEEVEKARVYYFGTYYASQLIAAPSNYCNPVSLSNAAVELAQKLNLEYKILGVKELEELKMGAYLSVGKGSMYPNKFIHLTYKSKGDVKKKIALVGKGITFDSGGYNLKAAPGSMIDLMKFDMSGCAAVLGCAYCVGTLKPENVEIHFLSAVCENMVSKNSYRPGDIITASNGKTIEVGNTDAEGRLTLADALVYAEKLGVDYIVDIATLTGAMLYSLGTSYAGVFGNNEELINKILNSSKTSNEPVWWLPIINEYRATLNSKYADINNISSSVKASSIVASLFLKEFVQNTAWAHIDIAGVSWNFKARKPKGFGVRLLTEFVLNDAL

[4] = molecular target: T2, Long-chain-fatty-acid--AMP ligase FadD28 (Mycobacterium tuberculosis, UniProt P9WQ59); assay: Fluorescence polarization aasay to screen for inhibitors that compete for the binding of FadD28 to a bisubstrate Measured in Biochemical System Using Plate Reader - 2147-01_Inhibitor_Dose_CherryPick_Activity.; format: functional, Mycobacterium tuberculosis H37Rv
T2 sequence (P9WQ59 whole entry): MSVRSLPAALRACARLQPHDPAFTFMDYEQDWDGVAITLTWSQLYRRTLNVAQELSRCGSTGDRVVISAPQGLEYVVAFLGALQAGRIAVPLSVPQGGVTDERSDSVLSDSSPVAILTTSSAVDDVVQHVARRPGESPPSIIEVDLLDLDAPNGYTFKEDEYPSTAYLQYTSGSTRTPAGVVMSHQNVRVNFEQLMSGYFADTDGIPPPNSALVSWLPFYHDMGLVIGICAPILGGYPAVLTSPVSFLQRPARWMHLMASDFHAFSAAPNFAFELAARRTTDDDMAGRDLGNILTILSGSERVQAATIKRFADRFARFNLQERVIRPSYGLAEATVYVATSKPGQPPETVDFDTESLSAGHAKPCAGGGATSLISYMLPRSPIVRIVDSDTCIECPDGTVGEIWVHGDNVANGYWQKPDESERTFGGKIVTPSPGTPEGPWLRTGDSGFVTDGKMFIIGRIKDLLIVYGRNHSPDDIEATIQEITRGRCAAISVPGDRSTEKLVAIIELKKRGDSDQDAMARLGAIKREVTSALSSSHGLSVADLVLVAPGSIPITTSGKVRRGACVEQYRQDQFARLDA

ORF 73 = ORF 73 (Human herpesvirus 8, UniProt O40947); assay: KSHV LANA DNA-binding disruption – biochemical, fluorescence polarization, cherry-picked samples, dose response (AID 504725); set-up: species or system Human gammaherpesvirus 8;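 also: fluorescence polarization of a labeled DNA duplex reporting LANA DNA binding; potency is for inhibitors that block LANA binding to the DNA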
[5] = molecular target: DNA (cytosine-5)-methyltransferase 1 (Homo sapiens, UniProt P26358); assay: inhibition of DNA methylation by DNMT1 – biochemical, fluorescent molecular beacon, confirmation (AID 602386); format: functional
[6] = molecular target: T3, Carboxy-terminal domain RNA polymerase II polypeptide A small phosphatase 1 (Homo sapiens, UniProt Q9GZU7); assay: CTDSP1 inhibitors, concentration-response, biochemical, absorbance readout, ultra-high-throughput screen actives (AID 540297); format: functional
T3 sequence (Q9GZU7 whole entry): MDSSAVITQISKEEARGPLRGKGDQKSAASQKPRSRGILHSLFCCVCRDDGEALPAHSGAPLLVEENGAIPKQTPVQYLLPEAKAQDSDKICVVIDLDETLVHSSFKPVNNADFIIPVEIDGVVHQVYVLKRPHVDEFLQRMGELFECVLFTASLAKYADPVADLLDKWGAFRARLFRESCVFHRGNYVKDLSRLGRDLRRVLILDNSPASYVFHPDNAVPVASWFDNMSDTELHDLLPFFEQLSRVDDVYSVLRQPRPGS

[7] = molecular target: Voltage-dependent T-type calcium channel subunit alpha-1H (Homo sapiens, UniProt O95180); format: functional;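 also: channel activity triggered by adding a high calcium stimulation buffer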
[8] = Luminescence Cell-Based Dose Retest to Confirm Inhibitors of Cancer Stem Cells. [Related pubchem assays (depositor defined):AID2717, AID2721]; format: functional; conditions: Homo sapiens
BJ [9] = assay: BJ-TERT-LT-ST fibroblast viability loss – cell-based, RAS-independent, luminescence, dose response (AID 1935); format: functional; conditions: Homo sapiens;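 also: BJ fibroblasts immortalized with TERT plus LT and ST oncogenes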
Hexokinase HKDC1 = molecular target: T4, Hexokinase HKDC1 (Homo sapiens, UniProt Q2TB90); assay: inhibition of HKDC1 glucose phosphorylation – biochemical, W721R variant, dose response (AID 504729); format: functional
T4 sequence (Q2TB90 whole entry): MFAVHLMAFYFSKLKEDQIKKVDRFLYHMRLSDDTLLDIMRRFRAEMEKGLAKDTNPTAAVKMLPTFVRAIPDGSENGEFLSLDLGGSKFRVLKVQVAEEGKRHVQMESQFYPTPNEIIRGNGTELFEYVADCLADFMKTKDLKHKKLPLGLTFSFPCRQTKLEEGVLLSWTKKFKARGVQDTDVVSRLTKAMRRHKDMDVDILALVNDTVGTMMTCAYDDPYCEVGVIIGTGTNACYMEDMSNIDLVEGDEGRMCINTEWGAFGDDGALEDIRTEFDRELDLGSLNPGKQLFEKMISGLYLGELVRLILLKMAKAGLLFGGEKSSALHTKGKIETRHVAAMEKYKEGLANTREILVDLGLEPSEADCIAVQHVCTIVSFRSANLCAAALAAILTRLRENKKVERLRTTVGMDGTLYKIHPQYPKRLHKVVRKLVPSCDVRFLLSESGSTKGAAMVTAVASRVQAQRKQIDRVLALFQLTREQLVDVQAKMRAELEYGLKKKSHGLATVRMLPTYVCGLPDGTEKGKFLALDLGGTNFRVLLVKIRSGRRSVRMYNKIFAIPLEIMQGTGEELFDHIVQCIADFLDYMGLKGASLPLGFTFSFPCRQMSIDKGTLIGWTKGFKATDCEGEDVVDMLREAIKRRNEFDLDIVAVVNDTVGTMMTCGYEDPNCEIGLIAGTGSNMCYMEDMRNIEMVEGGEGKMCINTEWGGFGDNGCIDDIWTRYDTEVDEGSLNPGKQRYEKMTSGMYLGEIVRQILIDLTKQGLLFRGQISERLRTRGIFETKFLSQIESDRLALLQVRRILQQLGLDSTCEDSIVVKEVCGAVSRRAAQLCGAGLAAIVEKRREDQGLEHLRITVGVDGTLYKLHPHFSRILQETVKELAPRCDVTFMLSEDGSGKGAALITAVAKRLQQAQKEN

[10] = reduction of Shn3 3'UTR-driven luciferase in osteoblasts – cell-based, Clone20 osteoblasts, firefly luciferase, cherry-picked, dose response (AID 624132); format: functional;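 also: firefly luciferase luminescence from reporter carrying the Shn3 3'UTR in osteoblasts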
[11] = molecular target: T5, Histone-lysine N-methyltransferase NSD2 (Homo sapiens, UniProt O96028); format: biochemical
T5 sequence (O96028 whole entry): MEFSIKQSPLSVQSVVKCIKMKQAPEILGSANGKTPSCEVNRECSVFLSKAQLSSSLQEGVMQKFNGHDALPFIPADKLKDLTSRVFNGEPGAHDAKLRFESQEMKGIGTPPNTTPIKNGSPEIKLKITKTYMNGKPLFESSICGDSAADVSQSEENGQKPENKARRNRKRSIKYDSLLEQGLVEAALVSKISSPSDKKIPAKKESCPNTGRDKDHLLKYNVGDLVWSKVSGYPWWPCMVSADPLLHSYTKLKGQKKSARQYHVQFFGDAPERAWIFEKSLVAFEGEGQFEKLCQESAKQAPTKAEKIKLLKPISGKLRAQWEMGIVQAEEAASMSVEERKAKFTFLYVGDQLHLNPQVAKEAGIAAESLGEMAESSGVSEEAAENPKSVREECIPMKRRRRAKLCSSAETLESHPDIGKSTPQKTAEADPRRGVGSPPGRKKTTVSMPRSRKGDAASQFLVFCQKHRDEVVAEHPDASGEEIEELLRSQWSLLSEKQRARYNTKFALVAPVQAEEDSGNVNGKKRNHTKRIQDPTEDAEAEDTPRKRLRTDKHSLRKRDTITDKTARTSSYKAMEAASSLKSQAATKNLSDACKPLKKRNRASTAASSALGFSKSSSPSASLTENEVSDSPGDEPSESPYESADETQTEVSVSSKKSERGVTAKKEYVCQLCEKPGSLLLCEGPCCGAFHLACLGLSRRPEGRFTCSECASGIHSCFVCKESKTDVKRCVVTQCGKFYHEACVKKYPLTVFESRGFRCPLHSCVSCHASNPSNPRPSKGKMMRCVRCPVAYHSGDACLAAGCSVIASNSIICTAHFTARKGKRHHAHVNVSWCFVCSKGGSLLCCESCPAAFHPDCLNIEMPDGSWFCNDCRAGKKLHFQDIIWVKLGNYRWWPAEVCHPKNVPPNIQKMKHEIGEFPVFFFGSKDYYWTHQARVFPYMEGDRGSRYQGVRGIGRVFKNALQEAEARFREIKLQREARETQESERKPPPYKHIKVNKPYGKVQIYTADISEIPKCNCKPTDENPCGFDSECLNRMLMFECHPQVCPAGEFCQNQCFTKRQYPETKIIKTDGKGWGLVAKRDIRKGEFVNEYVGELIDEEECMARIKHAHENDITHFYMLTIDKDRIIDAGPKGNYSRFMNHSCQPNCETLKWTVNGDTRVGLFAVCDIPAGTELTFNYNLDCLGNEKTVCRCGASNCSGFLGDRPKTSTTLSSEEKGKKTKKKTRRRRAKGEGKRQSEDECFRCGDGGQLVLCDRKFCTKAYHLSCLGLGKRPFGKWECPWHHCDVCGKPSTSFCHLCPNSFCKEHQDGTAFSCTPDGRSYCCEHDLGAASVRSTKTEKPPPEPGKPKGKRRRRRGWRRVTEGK

[12] = NIH3T3 cell viability loss – ATP luminescence, mouse fibroblasts, counter-screen, dose response (AID 2010); format: functional, cell-based;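 also: cells exposed to compound for about 90 hours before reading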
[13] = non-specific 3'UTR reporter inhibition in Clone20-Shn3RL – cell-based, Renilla luciferase, cherry-picked, counter-screen for Shn3 inhibitor project, dose response (AID 624133); format: functional
[14] = loss of viability in HepG2 cells – cell-based, CellTiter-Glo, cherry-picked, cytotoxicity control for Shn3 inhibitor project, dose response (AID 624134); format: functional
[15] = DRD fibroblast viability loss – cell-based, non-viral oncogenic, luminescence, dose response (AID 1934); format: functional; conditions: Homo sapiens
[16] = Trypanosoma cruzi growth suppression in host cells – NIH3T3 host cells, beta-gal luminescence, confirmation (AID 2044); format: functional, cell-based;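 also: intracellular parasites grown in NIH/3T3 mouse fibroblasts as host cells; luminescent beta-galactosidase reporter signal from transgenic T. cruzi replicating inside host cells; inhibitors lower the luminescence signal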
BJ [17] = assay: cells; format: functional, cell-based; conditions: Homo sapiens
BJ [18] = assay: BJ-TERT fibroblast viability loss – cell-based, RAS-independent, luminescence, dose response (AID 1933); format: functional; conditions: Homo sapiens
Trypsin = Trypsin (Sus scrofa, UniProt P00761); assay: trypsin protease activity blockade – biochemical, quenched peptide fluorescence, cherry-pick, selectivity assay for Rce1 protease inhibitor project, dose response (AID 488789)
CAAX prenyl protease 2 = molecular target: T6, CAAX prenyl protease 2 (Saccharomyces cerevisiae S288c, UniProt Q03530); format: biochemical
T6 sequence (Q03530 whole entry): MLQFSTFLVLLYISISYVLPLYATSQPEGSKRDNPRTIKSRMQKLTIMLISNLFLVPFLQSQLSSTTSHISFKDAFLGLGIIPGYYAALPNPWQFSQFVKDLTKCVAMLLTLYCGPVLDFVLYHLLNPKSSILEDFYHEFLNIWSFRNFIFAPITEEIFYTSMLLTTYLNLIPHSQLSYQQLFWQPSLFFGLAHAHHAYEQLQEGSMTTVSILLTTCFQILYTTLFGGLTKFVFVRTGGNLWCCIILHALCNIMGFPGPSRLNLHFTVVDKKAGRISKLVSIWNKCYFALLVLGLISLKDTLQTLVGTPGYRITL

Sequence of Voltage-dependent T-type calcium channel subunit alpha-1H (O95180 whole entry): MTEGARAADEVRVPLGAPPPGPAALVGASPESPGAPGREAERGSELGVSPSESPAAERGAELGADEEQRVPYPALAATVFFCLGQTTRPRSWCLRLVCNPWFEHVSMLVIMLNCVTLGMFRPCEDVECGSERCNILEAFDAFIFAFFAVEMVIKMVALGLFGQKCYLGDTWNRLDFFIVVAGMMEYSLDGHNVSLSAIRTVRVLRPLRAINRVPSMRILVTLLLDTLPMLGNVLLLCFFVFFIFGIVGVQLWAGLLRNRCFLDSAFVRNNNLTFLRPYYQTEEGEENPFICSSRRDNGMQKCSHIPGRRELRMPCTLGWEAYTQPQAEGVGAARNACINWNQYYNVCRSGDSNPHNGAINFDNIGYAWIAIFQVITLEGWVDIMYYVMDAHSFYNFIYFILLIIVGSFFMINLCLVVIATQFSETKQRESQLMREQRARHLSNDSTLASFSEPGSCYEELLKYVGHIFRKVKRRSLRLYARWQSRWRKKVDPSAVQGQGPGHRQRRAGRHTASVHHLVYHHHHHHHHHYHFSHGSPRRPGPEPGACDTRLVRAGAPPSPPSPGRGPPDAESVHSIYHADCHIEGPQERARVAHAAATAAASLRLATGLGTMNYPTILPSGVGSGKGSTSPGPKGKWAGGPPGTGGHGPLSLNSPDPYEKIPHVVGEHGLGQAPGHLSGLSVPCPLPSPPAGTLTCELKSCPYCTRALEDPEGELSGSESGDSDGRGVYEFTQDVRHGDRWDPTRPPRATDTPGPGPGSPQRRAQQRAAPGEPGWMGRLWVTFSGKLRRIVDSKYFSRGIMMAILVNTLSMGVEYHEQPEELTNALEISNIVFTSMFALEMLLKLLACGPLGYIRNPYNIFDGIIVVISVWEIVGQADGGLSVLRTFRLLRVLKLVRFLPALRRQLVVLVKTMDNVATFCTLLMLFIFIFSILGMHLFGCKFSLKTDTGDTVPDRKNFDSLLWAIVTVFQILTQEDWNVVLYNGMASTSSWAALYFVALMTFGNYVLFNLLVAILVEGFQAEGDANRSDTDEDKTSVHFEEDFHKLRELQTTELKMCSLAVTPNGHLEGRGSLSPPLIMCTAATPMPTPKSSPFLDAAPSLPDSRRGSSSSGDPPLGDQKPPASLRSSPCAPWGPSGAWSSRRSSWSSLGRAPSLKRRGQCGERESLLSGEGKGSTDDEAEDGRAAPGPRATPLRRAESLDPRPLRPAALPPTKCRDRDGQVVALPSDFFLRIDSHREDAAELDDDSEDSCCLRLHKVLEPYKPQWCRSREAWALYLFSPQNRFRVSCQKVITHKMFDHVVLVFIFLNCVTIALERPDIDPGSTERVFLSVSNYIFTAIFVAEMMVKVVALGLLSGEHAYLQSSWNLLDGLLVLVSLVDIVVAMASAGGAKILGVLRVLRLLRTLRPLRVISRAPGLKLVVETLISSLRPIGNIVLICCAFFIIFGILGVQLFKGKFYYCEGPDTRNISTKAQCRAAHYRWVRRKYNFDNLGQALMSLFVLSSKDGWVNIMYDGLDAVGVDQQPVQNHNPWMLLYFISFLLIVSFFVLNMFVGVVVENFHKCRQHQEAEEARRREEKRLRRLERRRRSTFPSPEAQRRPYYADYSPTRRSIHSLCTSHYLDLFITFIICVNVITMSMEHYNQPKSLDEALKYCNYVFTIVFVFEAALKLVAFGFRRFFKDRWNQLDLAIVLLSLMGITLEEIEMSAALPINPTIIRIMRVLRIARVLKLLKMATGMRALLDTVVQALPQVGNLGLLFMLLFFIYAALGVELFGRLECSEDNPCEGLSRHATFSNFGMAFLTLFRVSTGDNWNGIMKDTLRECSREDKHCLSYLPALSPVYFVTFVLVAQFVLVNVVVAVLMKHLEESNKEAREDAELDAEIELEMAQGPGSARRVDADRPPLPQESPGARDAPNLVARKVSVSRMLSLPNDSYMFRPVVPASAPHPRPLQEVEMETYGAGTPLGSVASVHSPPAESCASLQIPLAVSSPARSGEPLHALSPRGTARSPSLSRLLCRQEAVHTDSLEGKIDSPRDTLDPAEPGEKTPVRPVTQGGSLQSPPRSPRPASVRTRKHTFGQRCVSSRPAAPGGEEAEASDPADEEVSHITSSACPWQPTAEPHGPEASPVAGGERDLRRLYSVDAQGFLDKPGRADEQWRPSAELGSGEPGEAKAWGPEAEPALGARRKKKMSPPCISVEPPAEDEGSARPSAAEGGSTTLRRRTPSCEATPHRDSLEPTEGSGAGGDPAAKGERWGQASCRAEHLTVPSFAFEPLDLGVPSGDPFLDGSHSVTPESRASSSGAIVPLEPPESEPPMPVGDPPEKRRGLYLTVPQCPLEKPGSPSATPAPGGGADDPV
Sequence of DNA dC->dU-editing enzyme APOBEC-3G (Q9HC16 whole entry): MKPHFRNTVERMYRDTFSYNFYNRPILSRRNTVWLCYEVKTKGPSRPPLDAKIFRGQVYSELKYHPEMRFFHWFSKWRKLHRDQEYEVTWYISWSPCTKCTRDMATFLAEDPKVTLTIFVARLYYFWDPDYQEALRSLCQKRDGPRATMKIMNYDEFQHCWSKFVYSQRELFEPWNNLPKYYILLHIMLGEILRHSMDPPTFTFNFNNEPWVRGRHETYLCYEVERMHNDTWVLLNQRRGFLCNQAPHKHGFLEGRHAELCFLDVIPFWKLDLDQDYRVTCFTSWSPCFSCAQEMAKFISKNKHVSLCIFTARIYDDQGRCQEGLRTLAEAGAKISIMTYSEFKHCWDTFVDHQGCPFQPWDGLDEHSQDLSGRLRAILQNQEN
Sequence of ORF 73 (O40947 whole entry): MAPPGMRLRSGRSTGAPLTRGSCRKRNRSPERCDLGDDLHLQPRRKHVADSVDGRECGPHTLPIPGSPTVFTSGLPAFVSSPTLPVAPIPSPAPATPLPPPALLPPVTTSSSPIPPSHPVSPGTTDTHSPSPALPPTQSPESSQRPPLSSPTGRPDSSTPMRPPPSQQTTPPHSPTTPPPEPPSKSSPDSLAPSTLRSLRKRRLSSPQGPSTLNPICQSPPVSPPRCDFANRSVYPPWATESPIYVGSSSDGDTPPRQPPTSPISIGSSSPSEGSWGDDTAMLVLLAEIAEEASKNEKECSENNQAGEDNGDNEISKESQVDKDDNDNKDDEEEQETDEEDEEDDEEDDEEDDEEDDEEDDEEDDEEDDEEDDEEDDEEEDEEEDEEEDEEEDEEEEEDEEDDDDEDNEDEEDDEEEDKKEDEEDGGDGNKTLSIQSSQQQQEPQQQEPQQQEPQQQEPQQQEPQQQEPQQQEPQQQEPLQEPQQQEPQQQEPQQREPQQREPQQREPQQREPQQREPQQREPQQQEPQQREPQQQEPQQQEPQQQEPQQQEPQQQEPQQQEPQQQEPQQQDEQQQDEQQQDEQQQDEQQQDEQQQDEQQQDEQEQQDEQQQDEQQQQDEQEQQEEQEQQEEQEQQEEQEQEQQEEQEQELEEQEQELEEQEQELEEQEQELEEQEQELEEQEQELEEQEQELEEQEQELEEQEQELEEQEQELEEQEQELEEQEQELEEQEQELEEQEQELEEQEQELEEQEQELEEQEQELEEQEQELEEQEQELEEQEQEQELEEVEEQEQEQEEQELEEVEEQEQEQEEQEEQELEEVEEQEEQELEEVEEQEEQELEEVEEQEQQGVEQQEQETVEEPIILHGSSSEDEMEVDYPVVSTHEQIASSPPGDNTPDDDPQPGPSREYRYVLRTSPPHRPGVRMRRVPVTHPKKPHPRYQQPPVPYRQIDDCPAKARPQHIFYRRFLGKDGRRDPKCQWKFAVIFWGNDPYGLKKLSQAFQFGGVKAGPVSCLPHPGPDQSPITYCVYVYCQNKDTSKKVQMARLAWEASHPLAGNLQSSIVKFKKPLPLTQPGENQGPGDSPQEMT
Sequence of Trypsin (P00761 whole entry): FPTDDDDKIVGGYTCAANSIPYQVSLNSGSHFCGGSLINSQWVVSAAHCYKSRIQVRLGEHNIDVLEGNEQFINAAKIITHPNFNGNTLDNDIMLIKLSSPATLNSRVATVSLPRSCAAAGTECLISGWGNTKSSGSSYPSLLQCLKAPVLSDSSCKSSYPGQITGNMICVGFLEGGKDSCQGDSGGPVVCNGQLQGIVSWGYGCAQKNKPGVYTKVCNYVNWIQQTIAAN

COc1cccc(Nc2nnc(S)s2)c1
EC50 (cells [1]): > 350 µM (not active) | IC50 [2]: > 100 µM (inactive) | EC50 (cells [3]): > 350 µM (not active) | IC50 (Leucine aminopeptidase): 6.54 µM (active)

Cc1ccccc1NC(=O)CN1C(=O)N/C(=C\c2cccn2-c2cccc(C(=O)O)c2)C1=O
AC50 [4]: 55.3 µM (active) | AC50 (ORF 73): 74.7 µM (active) | IC50 [5]: 6.37 µM (active) | IC50 [6]: 4.42 µM (active)

O=C(NC1CCCC1)C(c1ccccc1)N(Cc1ccc2c(c1)OCO2)C(=O)Cc1cccs1 (stereo unspecified)
EC50 [7]: 1.52 µM (active)

COc1ccc(Cn2nnnc2C(C(C)C)N(Cc2ccco2)Cc2cccs2)cc1 (stereo unspecified)
EC50 [7]: 6.56 µM (active) | AC50 [8]: 2.02 µM (active)

CCN(CC)CCNc1cc(C)nc2c1C(=O)C(=O)C=C2N1CCCCC1
EC50 (cells [1]): > 350 µM (not active) | EC50 (BJ [9]): 8.38 µM (active) | IC50 (Hexokinase HKDC1): 13.2 µM (active) | AC50 [10]: 6.61 µM (active) | AC50 [11]: > 20 µM (inactive) | EC50 [12]: > 60 µM (not active) | AC50 [13]: 6.45 µM (active) | AC50 [14]: 5.54 µM (active) | EC50 [15]: 9.47 µM (active) | EC50 [16]: 1.44 µM (active) | EC50 (BJ [17]): 10.2 µM (active) | EC50 (cells [3]): > 350 µM (not active) | EC50 (BJ [18]): 5.91 µM (inconclusive)

CCN(CC)Cc1c(O)ccc2c(=O)c(-c3ccccc3OC)coc12
AC50 (Trypsin): 21.4 µM (active) | AC50 (CAAX prenyl protease 2): 13.8 µM (active)
